The results in this text go back to PubChem BioAssay (NCI).

Some test systems named below: EKVX NSCLC; HCT-116 colon; HS 578T breast; IGROV1 ovarian; NCI-H522 lung; NCI/ADR-RES ovarian; OVCAR-3 ovarian; OVCAR-5 ovarian; SK-MEL-2 melanoma; SNB-75 CNS.
Common to all, as to test: growth of human tumour cells (NCI), 48 h

Several values for one entry are separate records, joined by “and”; a condition that tells them apart may be missing. Identical values can stand only once.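 Results reflect a 48-hour exposure of cells in 96-well plates to compound at five concentrations. Here, GI50 denotes the concentration required for 50% inhibition of growth. TGI marks complete inhibition of growth.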

`C=CCCCOC1[C@H](OCc2ccccc2)C(OCc2ccccc2)C(OC)O[C@@H]1CNC(=O)c1cccc(I)c1` (stereo partly specified): the GI50 in the assay on EKVX NSCLC was 3200 nM; with HCT-116 colon, 4300 nM; in the assay with HS 578T breast, 9320 nM; in the assay with IGROV1 ovarian it was 17700 nM; in the assay with NCI-H522 lung, 33000 nM; with NCI/ADR-RES ovarian, 5260 nM. Besides, the GI50 in the assay with OVCAR-3 ovarian was 6460 nM; with OVCAR-5 ovarian, over 100000 nM; in the assay on SK-MEL-2 melanoma, 48100 nM; in the assay with SNB-75 CNS, 3910 nM. The TGI in the assay on EKVX NSCLC, in the assay on HCT-116 colon, in the assay on HS 578T breast, in the assay with IGROV1 ovarian, in the assay with NCI-H522 lung and in the assay on NCI/ADR-RES ovarian was over 100000 nM throughout. In addition, the TGI was over 100000 nM in the assay on OVCAR-3 ovarian, over 100000 nM in the assay on OVCAR-5 ovarian, over 100000 nM in the assay on SK-MEL-2 melanoma and 56500 nM in the assay with SNB-75 CNS.

Take `C[C@@H]1COCCN1c1cc(-c2ccnn2C)c2ccnc(-c3ccn[nH]3)c2n1`: the GI50 in the assay on EKVX NSCLC was 205 nM and 349 nM; in the assay with HCT-116 colon, 159 nM and 228 nM; in the assay on HS 578T breast, 99.4 nM and 291 nM; with IGROV1 ovarian, 71.5 nM and 195 nM; with NCI-H522 lung, 172 nM and 528 nM; in the assay with NCI/ADR-RES ovarian, 101 nM and 280 nM. The GI50 in the assay with OVCAR-3 ovarian was 223 nM and 406 nM; in the assay on OVCAR-5 ovarian it was 103 nM and 193 nM; with SK-MEL-2 melanoma it was 64 nM and 161 nM; in the assay on SNB-75 CNS, 87 nM and 219 nM. The TGI is 8110 nM and > 28600 nM in the assay on EKVX NSCLC; 16300 nM and > 59000 nM in the assay with HCT-116 colon; 643 nM and 2060 nM in the assay on HS 578T breast; 2430 nM and 4780 nM with NCI/ADR-RES ovarian; over 100000 nM in the assay on OVCAR-5 ovarian; 734 nM and 1850 nM with SK-MEL-2 melanoma. The TGI in the assay on SNB-75 CNS is 596 nM and 1800 nM.

Take `Brc1cccc(-c2cc(-c3ccc4nccnc4c3)[nH]n2)c1`: the GI50 in the assay with EKVX NSCLC is 4240 nM; with HCT-116 colon, 603 nM; with HS 578T breast, 1020 nM; in the assay on IGROV1 ovarian it was 877 nM; with NCI-H522 lung, 412 nM; in the assay on NCI/ADR-RES ovarian, 318 nM. In addition, the GI50 in the assay on OVCAR-3 ovarian was 485 nM; in the assay with OVCAR-5 ovarian, 2640 nM; in the assay with SK-MEL-2 melanoma it was 1550 nM; in the assay on SNB-75 CNS it was 674 nM. The TGI is over 250000 nM in the assay with EKVX NSCLC; over 84200 nM in the assay on HCT-116 colon; over 250000 nM in the assay on HS 578T breast; over 250000 nM in the assay on IGROV1 ovarian; over 250000 nM in the assay with NCI-H522 lung; 34300 nM in the assay on NCI/ADR-RES ovarian. Besides, the values for the TGI with OVCAR-5 ovarian, with SK-MEL-2 melanoma and in the assay on SNB-75 CNS were over 250000 nM, over 250000 nM and 2380 nM, respectively.

With `Cc1c2ccncc2c(C)c2c1c1cc(CO)ccc1n2C`, the GI50 is 719 nM in the assay on EKVX NSCLC; 175 nM in the assay on HCT-116 colon; 960 nM in the assay with HS 578T breast; 214 nM in the assay on IGROV1 ovarian; 661 nM with NCI-H522 lung; 551 nM with NCI/ADR-RES ovarian. The GI50 was 498 nM in the assay with OVCAR-3 ovarian, 267 nM with OVCAR-5 ovarian, 819 nM in the assay with SK-MEL-2 melanoma and 1070 nM with SNB-75 CNS. Moreover, the TGI with EKVX NSCLC worked out at 5980 nM; in the assay on HCT-116 colon, 1660 nM; in the assay with HS 578T breast it was 7860 nM; with IGROV1 ovarian, 1760 nM; with NCI-H522 lung it was 3810 nM; with NCI/ADR-RES ovarian, 7500 nM. In addition, the TGI worked out at 2320 nM in the assay on OVCAR-3 ovarian, 984 nM in the assay with OVCAR-5 ovarian, 2540 nM in the assay with SK-MEL-2 melanoma and 2700 nM in the assay with SNB-75 CNS.

Turning to `NS(=O)(=O)c1cccc(-c2ccc3c(NC(=O)C4CC4)n[nH]c3c2)c1`, the GI50 with EKVX NSCLC is over 25000 nM; in the assay on HCT-116 colon it was over 16900 nM; with HS 578T breast it was 9600 nM; in the assay on IGROV1 ovarian, over 25000 nM; in the assay with NCI-H522 lung, 5320 nM; in the assay with NCI/ADR-RES ovarian, over 25000 nM. Also, the GI50 is 6710 nM with OVCAR-3 ovarian, over 25000 nM with OVCAR-5 ovarian, 8780 nM with SK-MEL-2 melanoma and over 13800 nM with SNB-75 CNS. Also, the TGI in the assay on EKVX NSCLC was over 25000 nM; in the assay with HCT-116 colon, over 25000 nM; with HS 578T breast it was over 25000 nM; in the assay with IGROV1 ovarian it was over 25000 nM; in the assay on NCI-H522 lung, over 19000 nM; with NCI/ADR-RES ovarian, over 25000 nM. For the same molecule, the TGI is over 17600 nM in the assay on OVCAR-3 ovarian, over 25000 nM in the assay with OVCAR-5 ovarian, 24900 nM in the assay with SK-MEL-2 melanoma and over 25000 nM in the assay with SNB-75 CNS.

With `COc1cccc(CC(C)=C(c2ccc(OCCCN(C)C)cc2)c2ccc(OCCCN(C)C)cc2)c1`, the GI50 was 1640 nM in the assay on EKVX NSCLC; 447 nM in the assay with HCT-116 colon; 527 nM with HS 578T breast; 549 nM in the assay on IGROV1 ovarian; 452 nM in the assay on NCI-H522 lung; 548 nM with NCI/ADR-RES ovarian. The GI50 in the assay on OVCAR-3 ovarian is 545 nM; in the assay on OVCAR-5 ovarian, 707 nM; in the assay on SK-MEL-2 melanoma, 601 nM; with SNB-75 CNS, 619 nM. The TGI came to 5170 nM in the assay with EKVX NSCLC; 839 nM with HCT-116 colon; 1340 nM in the assay on HS 578T breast; 1190 nM in the assay with IGROV1 ovarian; 1000 nM in the assay on NCI-H522 lung; 1280 nM in the assay on NCI/ADR-RES ovarian. Also, the TGI stood at 1200 nM with OVCAR-3 ovarian, 2060 nM in the assay with OVCAR-5 ovarian, 1650 nM with SK-MEL-2 melanoma and 1770 nM in the assay on SNB-75 CNS.

Regarding `CC/C=C\C/C=C/C=C1/C(=O)C=C[C@@H]1C/C=C\CCCC(=O)OC`, the GI50 with EKVX NSCLC is 3890 nM; in the assay with HCT-116 colon it was 631 nM; with HS 578T breast, 15100 nM; in the assay with IGROV1 ovarian it was 2950 nM; in the assay with NCI-H522 lung it was 1780 nM; in the assay with NCI/ADR-RES ovarian, 3320 nM. In addition, the GI50 in the assay on OVCAR-3 ovarian was 1540 nM; with OVCAR-5 ovarian it was 3320 nM; with SK-MEL-2 melanoma, 3350 nM; with SNB-75 CNS, 25000 nM. In addition, the TGI in the assay on EKVX NSCLC was 20100 nM; in the assay on HCT-116 colon, 2430 nM; in the assay with HS 578T breast, over 100000 nM; in the assay with IGROV1 ovarian it was 10200 nM; in the assay with NCI-H522 lung, 4240 nM; in the assay with NCI/ADR-RES ovarian it was over 100000 nM. Moreover, the TGI with OVCAR-3 ovarian was 6350 nM; in the assay on OVCAR-5 ovarian it was 11100 nM; in the assay with SK-MEL-2 melanoma, 12500 nM; with SNB-75 CNS, over 100000 nM.
